The results in this text go back to a melting point compilation (Tetko et al.; mined from patent text by program, amines drawn as free bases though some values may be those of a salt).

Each structure is given as a SMILES string.

For `FC(F)(F)c1ccnc(Oc2ccc(CCOc3ncnc4nccnc34)cc2)c1`, the melting point (commonly the temperature of the solid-liquid transition) lay in the range of 172 to 173 °C.

Take `CCOC(=O)c1ccc2nc3n(c(=O)c2c1)CCC3=Cc1ccccc1C`: the melting point was 184 to 185 °C.

In the case of `CCc1n[nH]c(CC)c1CCOCCOc1ccc(OC)cc1Cl`, the melting point was 90 to 92 °C.

Take `CCNC(=O)C1OC(n2cnc3c(NNC(=O)c4ccccc4)ncnc32)C2OC(C)(C)OC12` (configuration not stated): the melting point lay in the range of 116 to 117 °C.

Compound `C=CCOc1nc2cccc(C(=O)OC)c2n1Cc1ccc(-c2ccccc2C#N)cc1` had a melting point of 118 to 119 °C.

For the compound `Cc1c(-c2ccc(O)cc2)sc(C=O)c1-c1ccc(O)cc1`, the melting point fell in the range of 223 to 225 °C.

`CCCCOCc1cc2ccccc2oc1=O`: the melting point lay in the range of 69 to 70 °C.

In turn, `NC(=O)c1ccc(N2CCN(Cc3cn4ccccc4n3)CC2)cc1` gave a melting point of 249 to 250 °C.

Take `CC(C)(C)COc1ccc(-n2ncc(C(=O)O)c2Cl)cc1C#N`: the melting point stood at 212 °C.

Compound `CCc1nc2c(N)nc3cc(OCCN4CCOCC4)ccc3c2n1CC1CCOCC1` showed a melting point of 230 to 232 °C.

In the case of `CN(CCc1ccc([N+](=O)[O-])cc1)Cc1cc2cc([N+](=O)[O-])ccc2s1`, the melting point lay in the range of 76 to 78 °C.

Compound `Cc1ncccc1CCCC(C)NC(=O)C(O)c1ccccc1` (configuration not stated) registered a melting point of 133 to 134 °C.

Take `COc1ccc2nc3[nH]c(=O)[nH]c3cc2c1`: the melting point was over 360 °C.

For the compound `CCCCn1ccc(N2CCC(c3ccccc3)CC2)c(Cl)c1=O`, the melting point is 149 °C.

Regarding `NCCCNC(=O)c1ccc(-c2ccc3nnn(Cc4ccc5ncccc5c4)c3n2)cc1F`, the melting point lay within 292 to 294 °C.

`Cc1nc(C)c(Cl)c(NCc2ccc(Oc3ccc4ncc([N+](=O)[O-])n4n3)c(OC(F)F)c2)n1` returned a melting point of 191 to 194 °C.

In turn, `CCCCC[C@H](O)/C=C/[C@@H]1[C@H]2Cc3cccc(OC(C)=O)c3C[C@H]2C[C@H]1O` yielded a melting point of 54 to 65 °C.

`COc1nc2c(cc1NC(=S)N1CCN(c3cc(C)cc(C)c3)CC1)CCC2`: the melting point was 159 to 161 °C.

`CC(C)(C)OC(=O)N1CCC(C(=O)c2nc3ccccc3n2Cc2ccc(F)cc2)CC1` returned a melting point of 114 to 115 °C.

`CC(C)Oc1ccc(CCCOc2nn(C)cc2CC(=O)O)c(Oc2ncc(C(F)(F)F)cc2Cl)c1`: the melting point was in the range of 92 to 94 °C.

Consider `Cc1cc2c(cc1C)N(C)C(=O)C(CC(=O)O)C2c1ccccc1Cl` (configuration not stated), for which the melting point was 210 to 215 °C.

Turning to `CCCCNC(=O)c1ccc(S(=O)(=O)CCCn2c(CCC)nc3c(N)nc(C)c(C)c32)cc1`, the melting point lay within 147 to 149 °C.

On to `O=C(Nc1c(C(O)(C(F)(F)F)C(F)(F)F)ccc2ccccc12)C1CCC1`, for which the melting point fell in the range of 185 to 186 °C.

`COc1ccc(N2CCN(CCC3OCCc4ccc(Br)cc43)CC2)cc1` (configuration not stated): the melting point is 78 to 79 °C.

`NC(=O)N(O)Cc1ccc(Sc2ccc(Cl)cc2)s1` gave a melting point of 158 to 160 °C.

As to `CN1C(=O)C(c2ccc(OCCCCCBr)cc2)Sc2cc(Cl)ccc21` (configuration not stated), the melting point fell in the range of 66 to 68 °C.

Turning to `Cc1cc(C)n2nc(NS(=O)(=O)c3ccccc3[N+](=O)[O-])nc2n1`, the melting point lay in the range of 255 to 256 °C.

In the case of `CN1CCC2(CC1)Oc1ccccc1Cn1cccc12`, the melting point lay in the range of 100 to 101 °C.

`Nc1nc2ccccc2c2c1ncn2CCNC(=O)c1ccccc1` showed a melting point of 295 °C.

`C[C@@H](n1cnc2ccc(Cl)cc2c1=O)[C@](O)(Cn1cncn1)c1ccc(F)cc1F`: the melting point lay within 188 to 189 °C.

`NC(=O)c1cccnc1Nc1cccc([N+](=O)[O-])c1` returned a melting point of 240 to 241 °C.

Consider `COC(=O)COc1cc2c(c3c1c(C(=O)C(N)=O)c(C)n3Cc1ccccc1Br)CCC2`, for which the melting point lay within 200 to 207 °C.

With `CCN(CC)CCCC1CCN(CCNC(=O)N2c3ccccc3NC(=O)c3csc(C)c32)CC1`, the melting point lay within 131 to 133 °C.

The compound `N#Cc1nn(-c2c(Cl)cc(C(F)(F)F)cc2Cl)c(N)c1-c1cccnc1` gave a melting point of 265 to 267 °C.

On to `CCC1OC1CC(=O)OC(C#N)c1ccc2ccccc2c1` (configuration not stated), for which the melting point lay within 60 to 61 °C.

`CCCCNC(=O)NS(=O)(=O)c1c(C(=O)OCC)cnn1-c1ccccn1` gave a melting point of 180 to 181 °C.

In the case of `Cc1ccc(NC(=O)c2ccc(CN3CCC[C@H](N(C)C)C3)c(C(F)(F)F)c2)cc1Nc1nccc(-c2cncnc2)n1`, the melting point lay within 160 to 162 °C.

`COc1ccc2c(=O)c3ccccc3oc2c1`: the melting point is 127 to 129 °C.

`Fc1ccc(F)c2c(NCCc3ccc(Oc4ccnc(C(F)(F)F)c4)cc3)ncnc12` returned a melting point of 95 to 96 °C.

Compound `CCCCCCCCCCCCCCCCNc1ccc(C(=O)OCC(COC(C)=O)OC(C)=O)cc1` (configuration not stated) yielded a melting point of 68 °C.

Turning to `C[C@H](O)c1nnc(-c2ccc3occ(-c4cc(F)ccc4Cl)c3c2)o1`, the melting point lay in the range of 204 to 205 °C.

For the compound `Cc1cc(C)n(-c2ccc(NN)nn2)n1`, the melting point was in the range of 142 to 143 °C.

In the case of `COc1ccc2ccccc2c1CCNC(C)=O`, the melting point came to 139 °C.

As to `COC(=O)c1cc(Nc2ccc(C)cc2)c(Nc2ccc(C)cc2)cc1C(=O)OC`, the melting point was 170 to 172 °C.

On to `COc1ccc(Cl)c(Oc2c(Cl)nc(C)nc2Cl)c1`, for which the melting point lay within 125 to 130 °C.

`c1ccc(Oc2ccc3[nH]c4c(c3c2)CNCC4)cc1` registered a melting point of 179 °C.

`COc1ccc(Nc2nc(Cl)nc(Cl)n2)cc1Cl` displayed a melting point of 165 °C.

Regarding `CC12CCC(O)CC1=CCC1C2CCC2(C)C(n3nccn3)=CCC12` (configuration not stated), the melting point was 176 to 177 °C.

Compound `OCc1cn(Cc2ccc(OCc3coc(-c4ccccc4)n3)cc2)nc1-c1cccs1` gave a melting point of 155 to 156 °C.

`Cn1ncnc1COc1ccc2nnc(-c3ccccc3)n2n1` came in with a melting point of 254 °C.

On to `COc1cnn(C2CCCCO2)c(=O)c1` (configuration not stated), for which the melting point lay within 76 to 78 °C.

In turn, `CC(=O)Oc1ccc(C2=CC(C)(C)c3ccccc3O2)cc1` displayed a melting point of 84 to 86 °C.

In turn, `O=C1c2cccc3c2N(CC3)c2ccc(Br)cc2N1CC#CCN1CCCC1` registered a melting point of 121 to 122 °C.

`CCCCCCC[C@@H](O)[C@@H](NCc1ccccc1)C(=O)O`: the melting point was 197 to 199 °C.

`Nc1ccc(C(=O)Nc2ccc(-n3nc(C(F)(F)F)cc3C(F)(F)F)cc2)cc1` returned a melting point of over 240 °C.

Take `O=C(O)COc1ccc(SCc2ccc(OCc3cc(Cl)ccc3Cl)cc2)c2c1CCC2`: the melting point is 158 to 160 °C.

In the case of `CN1C(=O)CN=C(c2ccccc2F)c2cc(NC(=O)N3CCCC3)ccc21`, the melting point lay in the range of 159 to 160 °C.

`COc1ncc(-c2cc(NC(=O)c3csc(CN4C[C@@H](C)O[C@@H](C)C4)n3)c3cn[nH]c3c2)cc1NS(=O)(=O)c1ccc(F)cc1F` came in with a melting point of 211 to 212 °C.

`CCC(Br)C(=O)c1ccc(OC)c(OCC(F)(F)F)c1` (configuration not stated) yielded a melting point of 120 to 121 °C.

`CCOC(=O)C(F)(F)C(O)(CC)c1cc2n(c(=O)c1CO)Cc1cc3ccccc3nc1-2` (configuration not stated) registered a melting point of 208 to 209 °C.

`CC(=O)NC[C@H]1CN(c2ccc(N3CCC(n4ccnc4)CC3)c(F)c2)C(=O)O1` yielded a melting point of 160 to 162 °C.

`O=Cc1cc(-c2ccc3nnn(Cc4ccc5ncccc5c4)c3n2)cs1` registered a melting point of 195 to 197 °C.

`N#Cc1cccc(NC(=O)Nc2ccc(-n3nc(C(F)(F)F)cc3C(F)(F)F)cc2)c1`: the melting point was in the range of 204 to 205 °C.

For `CC(=O)Nc1ccccc1C(=O)C=CN(C)C`, the melting point was 90 to 95 °C.

Turning to `Cc1ccc(Cn2c(NC3CCNCC3)nc3cnccc32)o1`, the melting point turned out to be 186 °C.

Compound `CC(C)(C)c1cc(SCc2cccc(-c3nnn[nH]3)c2)cc(C(C)(C)C)c1O` displayed a melting point of 177 to 178 °C.

Take `COc1cc(O)c(Br)c2cc(-c3ccc(O)cc3)oc12`: the melting point stood at 170 °C.

In the case of `CC(C)c1ccc2c(c1)c(S(=O)(=O)c1ccccc1)c(CC(C)(C)C(=O)O)n2Cc1ccc(N)cc1`, the melting point came out at 290 °C.

In turn, `CCOC(=O)C(=CNC1CC1)C(=O)c1c(F)c(F)c(Br)c(F)c1F` displayed a melting point of 167 to 168 °C.

Turning to `Cc1cc(N2CCC(=O)CC2)nn2cnnc12`, the melting point is 196 to 199 °C.

In turn, `O=C1CCn2c(Cc3ccc(Cl)cc3)nc3c(Cl)ccc1c32` returned a melting point of 167 °C.

Compound `FC(F)(F)COc1ccnc(Oc2ccc(CCNc3ncnc4nccnc34)cc2)c1` showed a melting point of 166 °C.

Compound `CCOP(=O)(/C=C/c1cn(-c2ccccc2)nc1OCc1ccc(OCc2nc(-c3cccc(C(=O)O)c3)oc2C)cc1)OCC` displayed a melting point of 153 to 155 °C.

Compound `Cc1cc2c(N=C3SCC4Cc5sccc5CN34)cccc2cn1` (racemic) had a melting point of 159 °C.

Compound `CNc1cc(F)ccc1C(=O)CS(=O)(=O)NC` gave a melting point of 140 to 142 °C.

As for `COc1ccc2c(c1)Sc1c(cc(OC)c(OC(C)=O)c1Br)N2C(=O)OC(C)OC(C)=O` (configuration not stated), the melting point was in the range of 134 to 135 °C.

In the case of `COc1ccc(S(=O)(=O)Nc2ccccc2NC(=O)c2ccccc2C)cc1`, the melting point was in the range of 129 to 130 °C.

`O=C(O)c1ccccc1N1CCN(c2cccc(C(F)(F)F)c2)C1=O` returned a melting point of 197 to 198 °C.

In the case of `CC#CCOc1cc(Oc2ccc(F)c(F)c2)ncn1`, the melting point stood at 110 °C.

`COC1=C(C)C(=O)C(OC)=C(CCCCCC2=C(OC)C(=O)C(C)=C(OC)C2=O)C1=O` yielded a melting point of 84 to 86 °C.

`O=S1(=O)N=CN(C2CC2)c2cc(Br)c(F)cc21` gave a melting point of 218 to 219 °C.

Regarding `COc1cccc(CNC(=O)c2nc3cccc(OCCc4ccc(C(=O)O)cc4)c3c(=O)[nH]2)c1`, the melting point lay within 228 to 230 °C.

Compound `CCC(COc1cccc(C(F)(F)F)c1)OC(=O)NCc1ccccc1` (configuration not stated) returned a melting point of 73 to 74 °C.

`NC(=O)N(O)CCn1ccc2ccccc21` registered a melting point of 57 to 60 °C.

In turn, `Cn1c(=O)c(=O)[nH]c2ccc3ccccc3c21` returned a melting point of 294 to 295 °C.

Consider `CCOC(=O)c1cc(=O)c2cc3c(=O)cc(C(=O)OCC)n(CC)c3cc2o1`, for which the melting point was in the range of 193 to 194 °C.

In the case of `CN(C)c1ncc(-c2cccnc2)cn1`, the melting point amounted to 295 °C.
